What was measured:
[1] = tested on: amphetamine-chlordiazepoxide induced increase in locomotor activity in mice; assay: Amphetamine and chlordiazepoxide-induced hyperlocomotion in mice; format: in vivo, mouse; details: test compound 5 mg/kg given twice, FIG. 1
Method: In this model, mice are treated with a mixture of d-amphetamine plus an anxiolytic dose of the benzodiazepine, chlordiazepoxide (Rushton R, Steinberg H. Combined effects of chlordiazepoxide and d-amphetamine on activity of rats in an unfamiliar environment. Nature 1966; 211:1312-3; R. Arban, G. Maraia, K. Brackenborough, L. Winyard, A. Wilson, P. Gerrard, C. Large. Evaluation of the effects of lamotrigine, valproate and carbamazepine in a rodent model of mania Behavioural Brain Research, 158: 123-132). The model has been claimed to mimic some aspects of mania in bipolar disorder. Importantly, the hyperactivity induced by the mixture of d-amphetamine and chlordiazepoxide could be prevented by prior administration of the established mood stabilizer, lithium, as well as other mood stabilizers drugs (e.g. magnesium valproate and carbamazepine). […]
Amphetamine (AMP) (2.5 mg/kg) plus chlordiazepoxide hydrochloride (CDZ) (3 mg/kg/ip) were administered to male Albino Swiss mice (25-32 g) in a volume of 10 ml/kg. The locomotor activity was recorded using Opto-M3 System (Columbus Instruments) which is multi-channel activity monitor. […] The locomotor activity (ambulation and total activity count) was evaluated for 30 min. […]
Statistical analysis: the data were evaluated by an analysis of variance (ANOVA), followed, when appropriate, by individual comparison with the control using Dunnett's test. […]

[2] = tested on: maximal electroshock seizures in mice; assay: Maximal electroshock test (MES) in mice; format: in vivo, mouse; details: i.v., 5 minutes before testing
Text: Animals and Apparatus: Male CDl mice weighing 25 g were used. The procedure described by White et al. (White H. S., Woodhead J. H., Franklin […]., and Wolf H. H. Antiepileptic Drugs (1995) 4th ed: 99-110, Raven Press, Ltd., New York) was followed. An Ugo Basile electroconvulsive generator (Model ECT UNIT 7801) was used to deliver an electrical stimulus sufficient to produce a hindlimb tonic extensor response in at least 97% of control animals. The stimulus was delivered intra-aurally through clip electrodes in mice (0.7 s of a 40 mA shock, with a pulse train of 80 Hz having a pulse duration of 0.4 ms). […] Ten mice were studied per group. Complete suppression of the hindlimb tonic extensor component of seizures was taken as evidence of anticonvulsant activity.

N-type calcium channels = N-type calcium channels (Homo sapiens, UniProt Q00975); assay: N-type calcium channel influx assay (fluorescence); format: cell-based; details: differentiated IMR32 cells, nifedipine 1 μM, 100 mM KCl depolarization; read-out: IC50
Chain of N-type calcium channels (Q00975 whole entry): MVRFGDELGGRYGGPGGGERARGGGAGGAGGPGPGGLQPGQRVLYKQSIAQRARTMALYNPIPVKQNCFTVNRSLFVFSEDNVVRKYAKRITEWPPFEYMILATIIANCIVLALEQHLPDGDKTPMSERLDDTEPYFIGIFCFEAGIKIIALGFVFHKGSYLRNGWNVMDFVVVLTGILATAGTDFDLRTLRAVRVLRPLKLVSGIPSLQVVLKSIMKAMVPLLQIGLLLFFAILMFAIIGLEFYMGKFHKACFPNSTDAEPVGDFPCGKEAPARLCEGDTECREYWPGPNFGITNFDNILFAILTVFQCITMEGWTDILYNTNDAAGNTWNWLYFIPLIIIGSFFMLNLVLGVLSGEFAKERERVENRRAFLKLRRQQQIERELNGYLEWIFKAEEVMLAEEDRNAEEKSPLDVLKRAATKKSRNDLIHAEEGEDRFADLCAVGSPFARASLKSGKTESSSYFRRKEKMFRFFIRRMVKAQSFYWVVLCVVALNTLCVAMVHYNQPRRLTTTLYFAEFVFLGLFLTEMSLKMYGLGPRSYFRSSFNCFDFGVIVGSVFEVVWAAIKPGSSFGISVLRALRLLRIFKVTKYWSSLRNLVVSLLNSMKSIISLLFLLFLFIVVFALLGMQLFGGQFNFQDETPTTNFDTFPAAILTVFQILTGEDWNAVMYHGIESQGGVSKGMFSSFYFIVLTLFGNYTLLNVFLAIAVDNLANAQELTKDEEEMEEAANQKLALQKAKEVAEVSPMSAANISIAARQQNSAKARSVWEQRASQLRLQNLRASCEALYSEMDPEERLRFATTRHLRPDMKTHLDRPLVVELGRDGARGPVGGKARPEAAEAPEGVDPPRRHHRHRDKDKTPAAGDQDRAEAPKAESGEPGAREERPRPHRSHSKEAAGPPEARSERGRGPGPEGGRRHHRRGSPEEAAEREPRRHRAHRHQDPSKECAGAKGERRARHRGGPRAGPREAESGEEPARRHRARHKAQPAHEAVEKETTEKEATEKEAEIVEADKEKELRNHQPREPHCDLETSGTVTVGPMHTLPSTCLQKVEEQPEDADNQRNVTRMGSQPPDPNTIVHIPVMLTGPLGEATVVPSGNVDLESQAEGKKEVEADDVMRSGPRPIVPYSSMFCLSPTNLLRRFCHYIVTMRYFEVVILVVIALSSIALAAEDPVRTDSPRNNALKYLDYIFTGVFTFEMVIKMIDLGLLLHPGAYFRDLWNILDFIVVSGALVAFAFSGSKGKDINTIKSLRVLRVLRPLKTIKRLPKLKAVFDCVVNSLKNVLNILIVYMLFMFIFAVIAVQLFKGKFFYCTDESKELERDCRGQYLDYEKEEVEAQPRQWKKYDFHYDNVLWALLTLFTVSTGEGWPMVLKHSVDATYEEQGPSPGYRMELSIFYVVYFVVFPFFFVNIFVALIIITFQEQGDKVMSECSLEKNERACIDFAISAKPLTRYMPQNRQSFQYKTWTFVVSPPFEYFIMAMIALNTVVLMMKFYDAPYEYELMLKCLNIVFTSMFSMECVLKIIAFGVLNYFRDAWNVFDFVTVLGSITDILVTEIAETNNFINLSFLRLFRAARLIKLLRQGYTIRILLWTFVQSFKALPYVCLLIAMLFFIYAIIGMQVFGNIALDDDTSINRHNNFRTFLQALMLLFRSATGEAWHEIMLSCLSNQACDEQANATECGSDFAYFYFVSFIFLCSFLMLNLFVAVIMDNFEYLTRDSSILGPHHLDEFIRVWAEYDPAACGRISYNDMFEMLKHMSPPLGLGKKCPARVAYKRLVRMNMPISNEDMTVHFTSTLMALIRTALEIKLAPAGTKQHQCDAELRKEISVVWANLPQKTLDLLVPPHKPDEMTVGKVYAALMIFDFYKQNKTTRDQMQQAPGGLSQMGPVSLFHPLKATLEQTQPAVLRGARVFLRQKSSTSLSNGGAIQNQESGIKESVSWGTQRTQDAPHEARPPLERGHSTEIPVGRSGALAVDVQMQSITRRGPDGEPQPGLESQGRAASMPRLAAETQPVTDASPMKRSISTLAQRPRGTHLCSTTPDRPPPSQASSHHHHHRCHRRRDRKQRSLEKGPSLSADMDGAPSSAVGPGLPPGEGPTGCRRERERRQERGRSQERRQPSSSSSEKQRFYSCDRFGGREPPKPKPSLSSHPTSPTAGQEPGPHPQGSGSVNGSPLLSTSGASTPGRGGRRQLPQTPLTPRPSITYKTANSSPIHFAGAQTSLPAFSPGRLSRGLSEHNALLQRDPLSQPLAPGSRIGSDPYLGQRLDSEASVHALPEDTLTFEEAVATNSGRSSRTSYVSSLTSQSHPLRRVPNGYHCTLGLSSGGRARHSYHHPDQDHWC
Chain of N-type calcium channels (Q02641 whole entry partner): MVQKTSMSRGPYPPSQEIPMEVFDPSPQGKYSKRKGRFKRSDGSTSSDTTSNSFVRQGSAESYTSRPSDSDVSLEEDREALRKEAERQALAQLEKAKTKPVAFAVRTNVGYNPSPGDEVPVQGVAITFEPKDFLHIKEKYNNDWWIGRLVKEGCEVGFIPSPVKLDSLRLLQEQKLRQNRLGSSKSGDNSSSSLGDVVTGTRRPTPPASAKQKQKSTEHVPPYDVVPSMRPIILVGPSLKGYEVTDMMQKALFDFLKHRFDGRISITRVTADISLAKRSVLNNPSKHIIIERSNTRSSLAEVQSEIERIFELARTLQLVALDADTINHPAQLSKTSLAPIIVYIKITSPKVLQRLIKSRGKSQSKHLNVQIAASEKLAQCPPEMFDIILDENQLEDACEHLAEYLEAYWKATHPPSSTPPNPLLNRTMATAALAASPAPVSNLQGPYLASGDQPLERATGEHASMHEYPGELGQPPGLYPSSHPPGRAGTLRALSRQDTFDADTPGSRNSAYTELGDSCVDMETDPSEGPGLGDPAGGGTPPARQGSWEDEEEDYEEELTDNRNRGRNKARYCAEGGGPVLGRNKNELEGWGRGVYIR
Chain of N-type calcium channels (P54289 25-956 partner limits assumed): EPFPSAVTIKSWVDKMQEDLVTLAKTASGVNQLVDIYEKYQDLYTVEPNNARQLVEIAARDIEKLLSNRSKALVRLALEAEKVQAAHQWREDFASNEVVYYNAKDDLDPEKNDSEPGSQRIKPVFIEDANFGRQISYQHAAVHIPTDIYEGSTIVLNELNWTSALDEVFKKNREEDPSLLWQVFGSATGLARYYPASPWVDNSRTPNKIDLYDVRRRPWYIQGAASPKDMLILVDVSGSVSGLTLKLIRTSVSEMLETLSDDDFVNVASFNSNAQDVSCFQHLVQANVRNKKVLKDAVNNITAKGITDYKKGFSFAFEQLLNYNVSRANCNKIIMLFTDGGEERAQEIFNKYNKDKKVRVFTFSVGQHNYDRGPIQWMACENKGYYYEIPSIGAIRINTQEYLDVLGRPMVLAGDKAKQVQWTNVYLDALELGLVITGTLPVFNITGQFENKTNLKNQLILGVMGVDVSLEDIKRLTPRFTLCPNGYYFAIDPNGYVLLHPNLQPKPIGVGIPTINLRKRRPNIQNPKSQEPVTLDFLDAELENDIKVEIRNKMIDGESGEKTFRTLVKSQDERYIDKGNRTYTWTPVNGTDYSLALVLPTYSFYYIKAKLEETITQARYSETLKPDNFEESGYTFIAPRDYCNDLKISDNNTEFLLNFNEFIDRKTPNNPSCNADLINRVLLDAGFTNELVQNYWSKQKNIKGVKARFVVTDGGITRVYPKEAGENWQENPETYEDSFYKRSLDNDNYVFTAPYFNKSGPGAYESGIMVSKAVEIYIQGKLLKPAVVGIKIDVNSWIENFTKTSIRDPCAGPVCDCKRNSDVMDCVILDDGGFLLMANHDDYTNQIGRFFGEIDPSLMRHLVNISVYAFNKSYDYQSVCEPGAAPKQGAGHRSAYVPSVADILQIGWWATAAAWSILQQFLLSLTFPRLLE
Chain of N-type calcium channels (P54289 957-1103 partner limits assumed): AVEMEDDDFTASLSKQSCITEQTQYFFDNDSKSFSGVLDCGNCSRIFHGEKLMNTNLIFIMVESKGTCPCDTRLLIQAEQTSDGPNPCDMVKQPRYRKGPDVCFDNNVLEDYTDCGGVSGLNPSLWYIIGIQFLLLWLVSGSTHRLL

Row | Compound | effect on amphetamine-chlordiazepoxide induced increase in locomotor activity [1] | 50% Protection [2] | IC50 (N-type calcium channels) [µM]
1 | CCCCOc1cccc(CCN(CC(=O)N(C)C)CC2CCOC2)c1.Cl (racemic) [Example 96, 2-[[2-(3-Butoxy-phenyl)-ethyl]-(tetrahydrofuran-3-ylmethyl)amino]-N,N-dimethyl-acetamide hydrochloride] | preventing the amphetamine-chlordiazepoxide induced increase in locomotor activity | (0.8 mg/kg/iv) | 
2 | C[C@H](NCc1ccc(OCc2ccccc2F)cc1)C(N)=O [ralfinamide, (S)-(+)-2-[4-(2-fluoro-benzyloxy)-benzylamino]-propanamide, reference compound] |  |  | 23

— patent publication US8129427B2, “2-phenylethylamino derivatives as calcium and/or sodium channel modulators” (Newron Pharmaceuticals S.p.A., priority 2005, dated 2012)
